A short description of assay [1]: Binding affinity to N-terminal His-tagged DC-SIGN CRD (194 to 331 residues) (unknown origin) expressed in Escherichia coli BL21 assessed as dissociation constant by HSQC-NMR spectrum analysis.
Assay [2] is described as follows: Binding affinity to DC-SIGN ECD (66 to 404 residue) (unknown origin) expressed in Escherichia coli BL21 assessed as dissociation constant by STD reporter assay based NMR spectroscopy analysis.

As a reminder, the Kd is the concentration at which binding is half-saturated. For the compound `CCOC(=O)c1cnc2ccccc2c1O`, the Kd in assay [1] and in assay [2] was 200 µM throughout.

In the case of `CCOC(=O)c1cc(=O)c2cccc(F)c2[nH]1`, the Kd in assay [1] turned out to be 400 µM; in assay [2], 500 µM.

For `CN(C)C(=O)c1c[nH]c2c(F)cccc2c1=O`, the Kd in assay [1] came out at 400 µM; in assay [2], 300 µM.

For `CN(C)C(=O)c1c[nH]c2cc(N(C)C)ccc2c1=O`, the dissociation constant (Kd) stood at 500 µM in assay [1] and 400 µM in assay [2].

Take `CN(C)C(=O)c1c[nH]c2ccc(F)cc2c1=O`: the dissociation constant Kd in assay [2] amounted to 2900 µM.

Regarding `O=c1c(S(=O)(=O)c2ccccc2)c[nH]c2cc(F)ccc12`, the dissociation constant (Kd) in assay [2] was 1900 µM.

On to `CN(C)C(=O)c1ccc2c(=O)c(S(=O)(=O)c3ccccc3)c[nH]c2c1`, for which the Kd in assay [2] worked out at 300 µM.

As to `CCOC(=O)c1cc(=O)c2cccc(C(=O)OCC)c2[nH]1`, the Kd in assay [2] turned out to be 600 µM.

`CCOC(=O)c1c[nH]c2c(C(=O)OCC)cccc2c1=O`: the Kd in assay [2] was 100 µM.

Take `CCOC(=O)c1c[nH]c2ccc(N(C)C)cc2c1=O`: the Kd in assay [2] is 300 µM.

In the case of `O=C(O)c1cnc2ccccc2c1O`, the Kd in assay [2] amounted to 2200 µM.

For the compound `O=C(O)c1c[nH]c2ccc(S(=O)(=O)N3CCCCC3)cc2c1=O`, the equilibrium dissociation constant (Kd) in assay [2] came out at 500 µM.

These data come from BindingDB's records for PubMed 35707152 (Max Planck Institute of Colloids and Interfaces, 2022).
